# Laboratory results as given in ChEMBL document CHEMBL1133302, “Use of proline bioisosteres in potential HIV protease inhibitors: phenylalanine-2-thiophenoxy-3-pyrrolidinone: synthesis and anti-HIV evaluation” (Bioorg Med Chem Lett, 2000).
# Assays:
# MT4 [1] = experiment: CC50 value was measured as concentration required to cause 50% death of uninfected MT-4 cells.; assay type: functional; details: Homo sapiens
# MT4 [2] = experiment: EC50 value was measured as concentration required to inhibit syncytia formation by 50% in MT-4 cells.; assay type: functional, cell-based; details: Homo sapiens
# [3] = molecular target: T1, Human immunodeficiency virus type 1 protease (Human immunodeficiency virus 1, UniProt Q72874); experiment: Compound was evaluated for the inhibition of HIV-1 protease
# [4] = Selective index is the ratio of CC50 to that of EC50 (CC50/EC50); assay type: functional
# MT4 [5] = experiment: EC50 value was measured as concentration required to inhibit syncytia formation by 50% in MT-4 cells; NA-Nonactive at nontoxic concentration; assay type: functional, cell-based, Homo sapiens
# [6] = molecular target: T1, Human immunodeficiency virus type 1 protease; experiment: Compound was evaluated for the inhibition of HIV-1 protease; NA-Nonactive at nontoxic concentration
SMILES,CC50 (MT4 [1]) [µM],EC50 (MT4 [2]) [nM],IC50 [3] [nM],SI [4],EC50 (MT4 [5]),IC50 [6]
CC(C)(C)OC(=O)N[C@@H](Cc1ccccc1)C(=O)N1CCC(=O)[C@@H]1Sc1ccccc1,100,50000,1000,2,,
O=C(N[C@@H](Cc1ccccc1)C(=O)N1CCC(=O)C1Sc1ccccc1)c1cccnc1 (some centres undefined),50,1000,100,50,,
CC(C)(C)OC(=O)N[C@@H](Cc1ccc(O)cc1)C(=O)N1CCC(=O)[C@H]1Sc1ccccc1,50,100,26,500,,
CC(C)(C)OC(=O)N[C@@H](Cc1ccc(OCc2ccccc2)cc1)C(=O)N1CCC(=O)[C@@H]1Sc1ccccc1,10,,20,,Not Active,
COc1ccc(C[C@H](NC(=O)OC(C)(C)C)C(=O)N2CCC(=O)[C@@H]2Sc2ccccc2)cc1,> 100,,10000,,Not Active,
O=C(N[C@@H](Cc1ccccc1)C(=O)N1CCC(=O)C1Sc1ccccc1)c1ccc2ccccc2n1 (some centres undefined),50,,5000,,Not Active,
CC(C)(C)OC(=O)N[C@@H](Cc1ccccc1)C(=O)N1CCC(=O)[C@H]1Sc1ccccc1,> 100,1000,8,> 100,,
CC(C)(C)OC(=O)NC(Cc1ccccc1)C(=O)N1CCC(=O)C1Sc1ccccc1 (racemic),> 100,,,,Not Active,Not Active
CC(C)(C)OC(=O)N[C@@H](Cc1ccc(OCc2ccccc2)cc1)C(=O)N1CCC(=O)[C@H]1Sc1ccccc1,50,100,20,500,,
CC(C)(C)OC(=O)N[C@@H](Cc1ccc(O)cc1)C(=O)N1CCC(=O)[C@@H]1Sc1ccccc1,> 100,50000,25,> 2,,
COc1ccc(C[C@H](NC(=O)OC(C)(C)C)C(=O)N2CCC(=O)[C@H]2Sc2ccccc2)cc1,50,,10000,,Not Active,
